{"source": "patent US8796466B2", "about": "“Hepatitis C virus inhibitors” (Bristol-Myers Squibb Company, priority 2009, dated 2014)", "system": "HCV 1b genotype", "assay": "HCV Replicon assay (HCV 1b genotype)", "assay_type": "cell-based, Hepatitis C virus", "conditions": "HCV 1b genotype replicon", "procedure": "An HCV Replicon assay was utilized in the present disclosure, and was prepared, conducted and validated as described in commonly owned PCT/US2006/022197 and in O'Boyle et. al. Antimicrob Agents Chemother. 2005 April; 49(4):1346-53. Assay methods incorporating luciferase reporters have also been used as described (Apath.com).\nHCV-neo replicon cells and replicon cells containing mutations in the NS5A region were used to test the currently described family of compounds. The compounds were determined to have more than 10-fold less inhibitory activity on cells containing mutations than wild-type cells. Thus, the compounds of the present disclosure can be effective in inhibiting the function of the HCV NS5A protein and are understood to be as effective in combinations as previously described in application PCT/US2006/022197 and commonly owned WO/04014852. Further, the compounds of the present disclosure can be effective against the HCV 1b genotype. It should also be understood that the compounds of the present disclosure can inhibit multiple genotypes of HCV. […] In one embodiment, compounds of the present disclosure are inhibitory versus 1a, 1b, 2a, 2b, 3a, 4a, and 5a genotypes.", "key": {"[1]": {"conditions": "Hepatitis C virus, class symbol, read-out: Range (EC50 values against HCV 1b)"}, "[2]": {"conditions": "Hepatitis C virus, Effective 50% inhibitory concentration, read-out: 1b EC50"}}, "note": "pEC50: −log10 of the molar value. Where two headings read alike, the source gives them in different places."}
{"smiles": "COC(=O)N[C@H](C(=O)N1[C@@H]2C[C@@H]2C[C@H]1c1ncc(-c2ccc([C@H]3C[C@@H]3c3ccc(-c4cnc([C@@H]5C[C@H]6C[C@H]6N5C(=O)[C@@H](NC(=O)OC)C5CCOCC5)[nH]4)cc3)cc2)[nH]1)C1CCOCC1", "note": "[Example M9.4, dimethyl ((1S,2S)-1,2-cyclopropanediylbis(4,1-phenylene-1H-imidazole-4,2-diyl(1R,3S,5R)-2-azabicyclo[3.1.0]hexane-3,2-diyl((1S)-2-oxo-1-(tetrahydro-2H-pyran-4-yl)-2,1-ethanediyl)))biscarbamate]", "values": [{"measurement": "pEC50", "setting": "[1]", "value": "10.00 to 11.70"}]}
{"smiles": "COC(=O)N[C@H](C(=O)N1[C@@H]2C[C@@H]2C[C@H]1c1nc(-c2ccc([C@@H]3C[C@H]3c3ccc(-c4c[nH]c([C@@H]5C[C@H]6C[C@H]6N5C(=O)[C@@H](NC(=O)OC)C5CCOCC5)n4)cc3)cc2)c[nH]1)C1CCOCC1", "note": "[Example M9.6, dimethyl ((1R,2R)-1,2-cyclopropanediylbis(4,1-phenylene-1H-imidazole-4,2-diyl(1R,3S,5R)-2-azabicyclo[3.1.0]hexane-3,2-diyl((1S)-2-oxo-1-(tetrahydro-2H-pyran-4-yl)-2,1-ethanediyl)))biscarbamate]", "values": [{"measurement": "pEC50", "setting": "[1]", "value": "10.00 to 11.70"}]}
{"smiles": "COC(=O)N[C@H](C(=O)N1C[C@@H](C)C[C@H]1c1ncc(-c2ccc([C@H]3C[C@@H]3c3ccc(-c4cnc([C@@H]5C[C@H](C)CN5C(=O)[C@@H](NC(=O)OC)C(C)C)[nH]4)cc3)cc2)[nH]1)C(C)C", "note": "[Example M9.7, methyl ((1S)-1-(((2S,4S)-2-(4-(4-((1S,2S)-2-(4-(2-((2S,4S)-1-((2S)-2-((methoxycarbonyl)amino)-3-methylbutanoyl)-4-methyl-2-pyrrolidinyl)-1H-imidazol-4-yl)phenyl)cyclopropyl)phenyl)-1H-imidazol-2-yl)-4-methyl-1-pyrrolidinyl)carbonyl)-2-methylpropyl)carbamate]", "values": [{"measurement": "pEC50", "setting": "[1]", "value": "10.00 to 11.70"}]}
{"smiles": "COC(=O)N[C@H](C(=O)N1C[C@@H](C)C[C@H]1c1ncc(-c2ccc([C@H]3C[C@@H]3c3ccc(-c4cnc([C@@H]5C[C@H](C)CN5C(=O)[C@@H](NC(=O)OC)C5CCOCC5)[nH]4)cc3)cc2)[nH]1)C1CCOCC1", "note": "[Example M9.8, dimethyl ((1S,2S)-1,2-cyclopropanediylbis(4,1-phenylene-1H-imidazole-4,2-diyl((2S,4S)-4-methyl-2,1-pyrrolidinediyl)((1S)-2-oxo-1-(tetrahydro-2H-pyran-4-yl)-2,1-ethanediyl)))biscarbamate]", "values": [{"measurement": "pEC50", "setting": "[1]", "value": "10.00 to 11.70"}]}
{"smiles": "COC(=O)N[C@H](C(=O)N1[C@@H](C)CC[C@H]1c1ncc(-c2ccc(C#Cc3ccc(-c4cnc([C@@H]5CC[C@H](C)N5C(=O)[C@@H](NC(=O)OC)C(C)C)[nH]4)cc3)cc2)[nH]1)C(C)C", "note": "[Example M10, methyl ((1S)-1-(((2S,5S)-2-(4-(4-((4-(2-((2S,5S)-1-((2S)-2-((methoxycarbonyl)amino)-3-methylbutanoyl)-5-methyl-2-pyrrolidinyl)-1H-imidazol-4-yl)phenyl)ethynyl)phenyl)-1H-imidazol-2-yl)-5-methyl-1-pyrrolidinyl)carbonyl)-2-methylpropyl)carbamate]", "values": [{"measurement": "pEC50", "setting": "[1]", "value": "10.00 to 11.70"}]}
{"smiles": "CC[C@H](NC(=O)OC)C(=O)N1[C@@H](C)CC[C@H]1c1nc(-c2ccc(C#Cc3ccc(-c4c[nH]c([C@@H]5CC[C@H](C)N5C(=O)[C@H](CC)NC(=O)OC)n4)cc3)cc2)c[nH]1", "note": "[Example M11, dimethyl (1,2-ethynediylbis(4,1-phenylene-1H-imidazole-4,2-diyl((2S,5S)-5-methyl-2,1-pyrrolidinediyl)((2S)-1-oxo-1,2-butanediyl)))biscarbamate]", "values": [{"measurement": "pEC50", "setting": "[1]", "value": "10.00 to 11.70"}]}
{"smiles": "COC(=O)N[C@H](C(=O)N1[C@@H](C)CC[C@H]1c1nc(-c2ccc(C#Cc3ccc(-c4c[nH]c([C@@H]5CC[C@H](C)N5C(=O)[C@@H](NC(=O)OC)C5CCOCC5)n4)cc3)cc2)c[nH]1)C1CCOCC1", "note": "[Example M12, dimethyl (1,2-ethynediylbis(4,1-phenylene-1H-imidazole-4,2-diyl((2S,5S)-5-methyl-2,1-pyrrolidinediyl)((1S)-2-oxo-1-(tetrahydro-2H-pyran-4-yl)-2,1-ethanediyl)))biscarbamate]", "values": [{"measurement": "pEC50", "setting": "[1]", "value": "10.00 to 11.70"}]}
{"smiles": "COC(=O)N[C@H](C(=O)N1[C@@H](C)CC[C@H]1c1ncc(-c2ccc(C#Cc3ccc(-c4cnc([C@@H]5CC[C@H](C)N5C(=O)[C@@H](NC(=O)OC)C5CCOCC5)[nH]4)cc3)cc2)[nH]1)C(C)C", "note": "[Example M12.1, methyl ((1S)-1-(((2S,5S)-2-(4-(4-((4-(2-((2S,5S)-1-((2S)-2-((methoxycarbonyl)amino)-2-(tetrahydro-2H-pyran-4-yl)acetyl)-5-methyl-2-pyrrolidinyl)-1H-imidazol-4-yl)phenyl)ethynyl)phenyl)-1H-imidazol-2-yl)-5-methyl-1-pyrrolidinyl)carbonyl)-2-methylpropyl)carbamate]", "values": [{"measurement": "pEC50", "setting": "[1]", "value": "10.00 to 11.70"}]}
{"smiles": "COC(=O)N[C@H](C(=O)N1C[C@@H](C)C[C@H]1c1ncc(-c2ccc(C#Cc3ccc(-c4cnc([C@@H]5C[C@H](C)CN5C(=O)[C@@H](NC(=O)OC)C(C)C)[nH]4)cc3)cc2)[nH]1)C(C)C", "note": "[Example M12.2, methyl ((1S)-1-(((2S,4S)-2-(4-(4-((4-(2-((2S,4S)-1-((2S)-2-((methoxycarbonyl)amino)-3-methylbutanoyl)-4-methyl-2-pyrrolidinyl)-1H-imidazol-4-yl)phenyl)ethynyl)phenyl)-1H-imidazol-2-yl)-4-methyl-1-pyrrolidinyl)carbonyl)-2-methylpropyl)carbamate]", "values": [{"measurement": "pEC50", "setting": "[1]", "value": "10.00 to 11.70"}]}
{"smiles": "COC(=O)N[C@H](C(=O)N1C[C@@H](C)C[C@H]1c1ncc(-c2ccc(C#Cc3ccc(-c4cnc([C@@H]5C[C@H](C)CN5C(=O)[C@@H](NC(=O)OC)C5CCOCC5)[nH]4)cc3)cc2)[nH]1)C1CCOCC1", "note": "[Example M12.3, dimethyl (1,2-ethynediylbis(4,1-phenylene-1H-imidazole-4,2-diyl((2S,4S)-4-methyl-2,1-pyrrolidinediyl)((1S)-2-oxo-1-(tetrahydro-2H-pyran-4-yl)-2,1-ethanediyl)))biscarbamate]", "values": [{"measurement": "pEC50", "setting": "[2]", "value": 10.85}, {"measurement": "pEC50", "setting": "[1]", "value": "10.00 to 11.70"}]}
{"smiles": "COC(=O)N[C@H](C(=O)N1C[C@@H](C)C[C@H]1c1nc(-c2ccc(C#Cc3ccc(-c4[nH]c([C@@H]5C[C@H](C)CN5C(=O)[C@@H](NC(=O)OC)C(C)C)nc4Cl)cc3)cc2)c[nH]1)C(C)C", "note": "[Example M12.4, methyl ((1S)-1-(((2S,4S)-2-(4-(4-((4-(4-chloro-2-((2S,4S)-1-((2S)-2-((methoxycarbonyl)amino)-3-methylbutanoyl)-4-methyl-2-pyrrolidinyl)-1H-imidazol-5-yl)phenyl)ethynyl)phenyl)-1H-imidazol-2-yl)-4-methyl-1-pyrrolidinyl)carbonyl)-2-methylpropyl)carbamate]", "values": [{"measurement": "pEC50", "setting": "[1]", "value": "10.00 to 11.70"}]}
{"smiles": "COC(=O)N[C@H](C(=O)N1C[C@@H](C)C[C@H]1c1nc(Cl)c(-c2ccc(C#Cc3ccc(-c4[nH]c([C@@H]5C[C@H](C)CN5C(=O)[C@@H](NC(=O)OC)C(C)C)nc4Cl)cc3)cc2)[nH]1)C(C)C", "note": "[Example M12.5]", "values": [{"measurement": "pEC50", "setting": "class symbol, read-out: Range (EC50 values against HCV 1b)", "value": "10.00 to 11.70"}]}
{"smiles": "COC(=O)N[C@H](C(=O)N1C[C@@H](C)C[C@H]1c1nc(-c2ccc(C#Cc3ccc(-c4[nH]c([C@@H]5C[C@H](C)CN5C(=O)[C@@H](NC(=O)OC)C5CCOCC5)nc4Cl)cc3)cc2)c[nH]1)C1CCOCC1", "note": "[Example M12.6, methyl ((1S)-2-((2S,4S)-2-(4-(4-((4-(4-chloro-2-((2S,4S)-1-((2S)-2-((methoxycarbonyl)amino)-2-(tetrahydro-2H-pyran-4-yl)acetyl)-4-methyl-2-pyrrolidinyl)-1H-imidazol-5-yl)phenyl)ethynyl)phenyl)-1H-imidazol-2-yl)-4-methyl-1-pyrrolidinyl)-2-oxo-1-(tetrahydro-2H-pyran-4-yl)ethyl)carbamate]", "values": [{"measurement": "pEC50", "setting": "[1]", "value": "10.00 to 11.70"}]}
{"smiles": "COC(=O)N[C@H](C(=O)N1C[C@@H](C)C[C@H]1c1nc(Cl)c(-c2ccc(C#Cc3ccc(-c4[nH]c([C@@H]5C[C@H](C)CN5C(=O)[C@@H](NC(=O)OC)C5CCOCC5)nc4Cl)cc3)cc2)[nH]1)C1CCOCC1", "note": "[Example M12.7, dimethyl (1,2-ethynediylbis(4,1-phenylene(4-chloro-1H-imidazole-5,2-diyl)((2S,4S)-4-methyl-2,1-pyrrolidinediyl)((1S)-2-oxo-1-(tetrahydro-2H-pyran-4-yl)-2,1-ethanediyl)))biscarbamate]", "values": [{"measurement": "pEC50", "setting": "[2]", "value": 10.21}, {"measurement": "pEC50", "setting": "[1]", "value": "10.00 to 11.70"}]}
{"smiles": "COC(=O)N[C@H](C(=O)N1C[C@@H](C)C[C@H]1c1ncc(-c2ccc(C#Cc3ccc(-c4cnc([C@@H]5C[C@H](C)CN5C(=O)[C@@H](NC(=O)OC)C5CCOCC5)[nH]4)cc3)cc2)[nH]1)C(C)C", "note": "[Example M12.8, methyl ((1S)-2-((2S,4S)-2-(4-(4-((4-(2-((2S,4S)-1-((2S)-2-((methoxycarbonyl)amino)-3-methylbutanoyl)-4-methyl-2-pyrrolidinyl)-1H-imidazol-4-yl)phenyl)ethynyl)phenyl)-1H-imidazol-2-yl)-4-methyl-1-pyrrolidinyl)-2-oxo-1-(tetrahydro-2H-pyran-4-yl)ethyl)carbamate]", "values": [{"measurement": "pEC50", "setting": "[1]", "value": "10.00 to 11.70"}]}
{"smiles": "COC(=O)N[C@H](C(=O)N1[C@H]2C[C@@]2(C)C[C@H]1c1ncc(-c2ccc(C#Cc3ccc(-c4cnc([C@@H]5C[C@]6(C)C[C@@H]6N5C(=O)[C@@H](NC(=O)OC)C(C)C)[nH]4)cc3)cc2)[nH]1)C(C)C", "note": "[Example M12.9, methyl ((1S)-1-(((1S,3S,5S)-3-(4-(4-((4-(2-((1S,3S,5S)-2-((2S)-2-((methoxycarbonyl)amino)-3-methylbutanoyl)-5-methyl-2-azabicyclo[3.1.0]hex-3-yl)-1H-imidazol-4-yl)phenyl)ethynyl)phenyl)-1H-imidazol-2-yl)-5-methyl-2-azabicyclo[3.1.0]hex-2-yl)carbonyl)-2-methylpropyl)carbamate]", "values": [{"measurement": "pEC50", "setting": "[1]", "value": "10.00 to 11.70"}]}
